Measured values taken from patent US6822146B2, “Sulfonylurea-tolerant sunflower line M7” (priority 2000, dated 2004).

Columns and labels:
[1] = test system: Homozygous resistant inbred lines, BC3-M4M12 (I), BC3-M4M11 (J) and BC3-M4M7 (K); assay: Test A summary, homozygous resistant inbred lines; settings: in vivo
How it was run: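 Field-grown sunflower lines received broadcast post-emergence sulfonylurea herbicides at the 6-leaf stage, at European registered use rates, in four randomized replicates; all but metsulfuron-methyl included Citowet non-ionic surfactant at 0.25% v/v. Peak crop injury was scored visually as % phytotoxicity (0% none, 100% all plants destroyed).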

[2] = test system: heterozygous resistant hybrids (C to H); settings: in vivo
Procedure: In a small field trial, the sunflower varieties described in Table 4 were sprayed post-emergence with a variety of sulfonylurea herbicide treatments.
Broadcast post-emergence applications of formulated sulfonylurea herbicides were performed at the 6-leaf development stage using four randomly distributed replications. Application rates were chosen to match the usual use rates of these herbicides in the crops they are registered in Europe. All herbicides except for metsulfuron-methyl were sprayed in combination with Citowet® non-ionic ethoxylated alcohol at 0.25% volume of formulated product per volume of water applied per hectare.
The evaluation of the maximum (i.e. peak) injury to sunflower varieties by sulfonylurea herbicides was measured by visual ratings, which are listed in Table 5. A rating of 0% phytotoxicity means no crop injury. […] A rating of 100% means the complete destruction of all plants.

[3] = test system: BC4-M5M12 × PHA155 hybrid; assay: Test E injury to sunflower hybrid; format: in vivo
Procedure: Based on the results from Test D, a modified protocol was developed to include three timings of post-emergence treatment. The hybrid BC4-M5M12 (female parent)×PHA155 restorer line (male parent) described in Test C was used in this test. Various herbicide programs were tested using three replications. […] Seed coatings of these formulated herbicides were applied to 6 kg of seeds in such amount that considering the distribution of the coated seeds in each pot, the herbicide active ingredient (a.i.) application rates per hectare were as indicated.
The treatments were applied similar to the methods described for Test D. Pre-emergence applications were broadcast only, not soil incorporated. For pre-emergence application, the pots were sprayed using the high rates of the herbicides two days after sowing the sunflower seeds. Post-emergence treatments were applied at the 4-6 leaf stage of sunflower (corresponding to early stage of Orobanche attachment; identified as “T1”), the 6-8 leaf stage of sunflower (corresponding to the mid stage of Orobanche attachment; nodules <5 mm diameter; identified as “T2”) and 8-12 leaf stage of sunflower (corresponding to late stage of Orobanche attachment; identified as “T3”). The mid-stage applications included the high as well as low application rates of each herbicide.
For comparison were also included in this test other acetolactate synthase-inhibiting herbicides reported in the literature as giving good weed control of Orobanche (L. García-Torres et al., Weed Research 1994, 34, 395-402; L. García-Torres et al., Weed Technology 1995, 9, 819-824; J. Hershenhorn et al., Weed Technology 1998, 12, 108-114).

[4] = test system: Orobanche cumana (Race F); assay: Test F sequential application to control Orobanche cumana; format: in vivo
Procedure: A greenhouse experiment was performed to identify the best sequential program compared to straight application of tribenuron-methyl or metsulfuron-methyl for control of Orobanche cumana (Race F). The dose range for optimum efficacy was also studied. Both herbicides were used as formulated compositions. […] BC4-M5M7×PHA155 is referred to below as “Hybrid 7”, and BC4-M5M12×PHA155 is referred to below as “Hybrid 12”.
Seed coating treatment was performed as described for Test D. Post-emergence treatments were applied at the 2-4 leaf stage of sunflower (corresponding to early stage of Orobanche attachment; identified as “T1”), the 6 leaf stage of sunflower (corresponding to the mid stage of Orobanche attachment; nodules <5 mm diameter; identified as “T2”) and 8 leaf stage of sunflower (corresponding to late stage of Orobanche attachment; identified as “T3”).
The efficacy was evaluated visually as described for Test D except that the efficacy was assessed ten days later than for Tests D and E. The later evaluation allowed observing any reduction of efficacy due to late Orobanche emergence or re-growth of treated nodules. Efficacy in controlling Orobanche attached to roots was evidenced by nodules comprising black necrotic tissues with no apparent active meristematic area. These nodules could be easily crushed between fingers.

[5] = test system: Chenopodium album; assay: Test H weed control, field plots; format: in vivo; settings: 36 days after treatment; g a.i./ha: tribenuron-methyl 22.5, metsulfuron-methyl 6, ethametsulfuron-methyl 16, imazapyr isopropylamine salt 15, aclonifen 1200
From the text: (§1) Field plots (2 m×5 m) were tilled to remove weed cover and then seeded in rows with the following weeds: Capsella bursa pastoris, Atriplex patula, Chenopodium album, Stellaria media, Mecurialis annua, Polygonum persicaria, Amaranthus retroflexus, Polygonum convolvulus, Polygonum aviculare, Viola arvensis, Matricaria inodora, Anagallis arvensis, Sinapis arvensis, Setaria viridis, Solanum nigrum and Echinochloa crusgalli. After 21 days from sowing, at which time the weeds had reached the 2- to 6-leaf stage, herbicide treatments were applied to the plots according to a complete randomized block design, with each herbicide treatment triply replicated. The herbicides were sprayed using standard flat fan nozzles moved perpendicular to the sown lines using water spray volumes of about 296 L/ha.
(§2) Assessments of weed control were made by visual inspection 36 days after herbicide treatment. A visual rating system was used based on a percentage scale from 0 to 100% compared to an adjacent untreated control plot. On this scale 0 represents no visual differences relative to an untreated control and 100 represents complete control of the given weed species.

[6] = test system: Stellaria media; assay: Test H weed control, field plots; format: in vivo; settings: 36 days after treatment; g a.i./ha: tribenuron-methyl 22.5, metsulfuron-methyl 6, ethametsulfuron-methyl 16, imazapyr isopropylamine salt 15, aclonifen 1200
From the text: as §1, §2

[7] = test system: Anagallis arvensis; assay: Test H weed control, field plots; format: in vivo; design: concentration or dose not given beside the values; settings: 36 days after treatment; g a.i./ha: tribenuron-methyl 22.5, metsulfuron-methyl 6, ethametsulfuron-methyl 16, imazapyr isopropylamine salt 15, aclonifen 1200
From the text: as §1, §2

[8] = test system: Echinochloa crus-galli; assay: Test H weed control, field plots; format: in vivo; design: concentration or dose not given beside the values; settings: 36 days after treatment; g a.i./ha: tribenuron-methyl 22.5, metsulfuron-methyl 6, ethametsulfuron-methyl 16, imazapyr isopropylamine salt 15, aclonifen 1200
From the text: as §1, §2

[9] = test system: Mercurialis annua; assay: Test H weed control, field plots; format: in vivo; design: concentration or dose not given beside the values; settings: 36 days after treatment; g a.i./ha: tribenuron-methyl 22.5, metsulfuron-methyl 6, ethametsulfuron-methyl 16, imazapyr isopropylamine salt 15, aclonifen 1200
From the text: as §1, §2

[10] = test system: Polygonum aviculare; assay: Test H weed control, field plots; format: in vivo; design: concentration or dose not given beside the values; settings: 36 days after treatment; g a.i./ha: tribenuron-methyl 22.5, metsulfuron-methyl 6, ethametsulfuron-methyl 16, imazapyr isopropylamine salt 15, aclonifen 1200
From the text: as §1, §2

[11] = test system: Setaria viridis; assay: Test H weed control, field plots; format: in vivo; design: concentration or dose not given beside the values; settings: 36 days after treatment; g a.i./ha: tribenuron-methyl 22.5, metsulfuron-methyl 6, ethametsulfuron-methyl 16, imazapyr isopropylamine salt 15, aclonifen 1200
From the text: as §1, §2

[12] = test system: Viola arvensis; assay: Test H weed control, field plots; format: in vivo; design: concentration or dose not given beside the values; settings: 36 days after treatment; g a.i./ha: tribenuron-methyl 22.5, metsulfuron-methyl 6, ethametsulfuron-methyl 16, imazapyr isopropylamine salt 15, aclonifen 1200
From the text: as §1, §2

[13] = test system: Weeds Agronomically Important in Sunflower Crops; assay: Test H summary; format: in vivo; settings: tribenuron-methyl 22.5 g a.i./ha, metsulfuron-methyl 6 g a.i./ha
From the text: as §1, §2

[14] = test system: BC4-M5M12 × PHA155; assay: Test C field phytotoxicity, BC4-M5M12 × PHA155; format: in vivo, sunflower
From the text: A rating of 0% phytotoxicity means no crop injury.

[15] = post-emergence T1 3 + T3 3 g a.i./ha
[16] = post-emergence T1 11.25 + T3 11.25 g a.i./ha
[17] = post-emergence T1 22.5 g a.i./ha
[18] = post-emergence T2 11.25 g a.i./ha
[19] = post-emergence T2 22.5 g a.i./ha
[20] = post-emergence T3 11.25 g a.i./ha
[21] = post-emergence T3 22.5 g a.i./ha
[22] = seed coating 11.25 + post-emergence T2 11.25 g a.i./ha
[23] = seed coating 11.25 + post-emergence T3 11.25 g a.i./ha

## COC(=O)c1ccccc1S(=O)(=O)NC(=O)Nc1nc(C)nc(OC)n1 [Metsulfuron-methyl, metsulfuron-methyl]
[1]
  tolerance of homozygous resistant inbred lines I, J, K: resistant
[2]
  tolerance of heterozygous resistant hybrids C to H: as tolerant as the three homozygous resistant lines
[3]; in vivo
  sunflower phytotoxicity: more likely to cause sunflower phytotoxicity
[4]; [15]
  % Control in Hybrid 7: 92%
  % Control in Hybrid 12: 90%
[4]; post-emergence T1 3 g a.i./ha
  % Control in Hybrid 7: 65%
  % Control in Hybrid 12: 63%
[4]; post-emergence T3 3 g a.i./ha
  % Control in Hybrid 7: 93%
  % Control in Hybrid 12: 95%
[4]; single late post-emergence treatment with 3 g a.i./ha
  control of Orobanche: excellent control
[5]
  weed control, visual rating: Chenopodium album: 100%
[6]
  weed control, visual rating: Stellaria media: 100%
[7]
  weed control, visual rating: Anagallis arvensis: 100%
[8]
  weed control, visual rating: Echinochloa crus-galli: 47%
[9]
  weed control, visual rating: Mercurialis annua: 100%
[10]
  weed control, visual rating: Polygonum aviculare: 100%
[11]
  weed control, visual rating: Setaria viridis: 47%
[12]
  weed control, visual rating: Viola arvensis: 100%
[13]
  weed control spectrum: excellent broad-spectrum weed control

## COC(=O)c1cccc(C)c1S(=O)(=O)NC(=O)Nc1nc(OCC(F)(F)F)nc(N(C)C)n1 [Triflusulfuron-methyl, triflusulfuron-methyl]
[14]; postemergence 7.5 g a.i./ha, 7 DAT
  Phytotoxicity Rating After Treatment: 22%
[14]; postemergence 7.5 g a.i./ha, 15 DAT
  Phytotoxicity Rating After Treatment: 22%
[14]; postemergence 7.5 g a.i./ha, 30 DAT
  Phytotoxicity Rating After Treatment: 25%
[14]; postemergence 15 g a.i./ha, 7 DAT
  Phytotoxicity Rating After Treatment: 38%
[14]; postemergence 15 g a.i./ha, 15 DAT
  Phytotoxicity Rating After Treatment: 45%
[14]; postemergence 15 g a.i./ha, 30 DAT
  Phytotoxicity Rating After Treatment: 43%
[3]; Test E rates
  sunflower phytotoxicity: transitory phytotoxicity symptoms
[3]; post-emergence 18.75 g a.i./ha at T2
  Injury: 0%

## COC(=O)c1ccccc1S(=O)(=O)NC(=O)N(C)c1nc(C)nc(OC)n1 [Tribenuron-methyl, tribenuron-methyl]
[1]
  tolerance of homozygous resistant inbred lines I, J, K: resistant
[2]
  tolerance of heterozygous resistant hybrids C to H: as tolerant as the three homozygous resistant lines
[14]; postemergence 11.25 g a.i./ha, 15 DAT
  Phytotoxicity Rating After Treatment: 18%
[4]; greenhouse test, Hybrid 7 and Hybrid 12
  rate needed for good control of Orobanche: 22.5 g a.i./ha
[4]; [16]
  % Control in Hybrid 7: 85%
  % Control in Hybrid 12: 85%
[4]; [17]
  % Control in Hybrid 7: 72%
  % Control in Hybrid 12: 73%
[4]; [18]
  % Control in Hybrid 7: 77%
  % Control in Hybrid 12: 73%
[4]; [19]
  % Control in Hybrid 7: 82%
  % Control in Hybrid 12: 83%
[4]; [20]
  % Control in Hybrid 7: 78%
  % Control in Hybrid 12: 80%
[4]; [21]
  % Control in Hybrid 7: 87%
  % Control in Hybrid 12: 87%
[4]; [22]
  % Control in Hybrid 7: 77%
  % Control in Hybrid 12: 78%
[4]; [23]
  % Control in Hybrid 7: 82%
  % Control in Hybrid 12: 83%
[5]
  weed control, visual rating: Chenopodium album: 100%
[6]
  weed control, visual rating: Stellaria media: 100%
[7]
  weed control, visual rating: Anagallis arvensis: 100%
[8]
  weed control, visual rating: Echinochloa crus-galli: 65%
[9]
  weed control, visual rating: Mercurialis annua: 100%
[10]
  weed control, visual rating: Polygonum aviculare: 90%
[11]
  weed control, visual rating: Setaria viridis: 65%
[12]
  weed control, visual rating: Viola arvensis: 100%
[13]
  weed control spectrum: excellent broad-spectrum weed control
